Test results as given in US20240065270A1 (priority 2018, published 2024).
“Also recorded” adds a separate entry of the source.

Columns and labels:
[1] = tested on: Arabidopsis wildtype plants; experiment: Growth (root length) of Arabidopsis wildtype plants on media with low-dose herbicides, alone and combined; format: in vivo
Experimental: Because Cellulosin has different target as isoxaben, indaziflam and C17. Since the need to avoid the development of herbicide-resistant weeds that is caused by repetitive application of the same herbicide is utmost, we decided to test whether application of Cellulosin together with isoxaben, indaziflam and C17 would make it possible to control the weeds more efficiently with reduced dosage of two herbicides.
Statistically significant differences in right panels were determined by one-way ANOVA test followed by Tukey's multiple comparisons test. Different letters of root length of seedlings indicate significant difference between groups (p<0.05). N=12.
[…] Bar, 1 cm.
Because Cellulosin and isoxaben target CesA at different sites, it allowed us to hypothesize that application of both herbicides at the same time will make it possible to control the weeds with reduced dosage of both herbicides. This should also avoid the development of herbicide-resistant weeds that is caused by repetitive application of the same herbicide. We tested the growth of Arabidopsis at lower dosage of both Cellulosin and isoxaben.

[2] = tested on: Cellulosin resistant mutants (cesa6); experiment: Growth (root length) of Cellulosin resistant cesa6 mutants on supplemented media; format: in vivo, Arabidopsis; details: media supplemented with the compound, compared with DMSO control
Excerpt: (§1) Recently, we discovered a new cellulose synthase inhibitor Cellulosin and a group of cesa6 mutants that carry mis-sense mutations at the central cytoplasmic region that contains the catalytic motif and are resistant to Cellulosin. In order to test whether Cellulosin has the same mode of action as isoxaben, indaziflam and C17, we first tested the growth of isoxaben resistant mutants on media supplemented with Cellulosin. […] We next tested the growth of our Cellulosin resistant mutants on isoxaben, indaziflam and C17.
FIGS. 2E-2G depict quantifications of root length of Cellulosin resistant mutants on media supplemented with isoxaben (FIG. 2E), indaziflam (FIG. 2F), and C17 (FIG. 2G) in comparison with DMSO control, Statistically significant differences in right panels were determined by one-way ANOVA test followed by Tukey's multiple comparisons test. Different letters of root length of seedlings indicate significant difference between groups (p<0.05). Bars: 1 cm.

[3] = tested on: plants expressing CesA6 carrying mis-sense mutations at the catalytic site; experiment: Growth of transgenic plants expressing CesA6 with mis-sense mutations at the hypothesized Cellulosin binding sites; format: in vivo, Arabidopsis; details: cesa6 loss-of-function mutant background; compared with DMSO control
Excerpt: as §1

[4] = tested on: Arabidopsis mutants ixr1-1, ixr1-2 and ixr2-1; experiment: Growth (root length) of isoxaben resistant mutants ixr1-1, ixr1-2, ixr2-1 on supplemented media; format: in vivo; details: media supplemented with the compound
Excerpt: as §1
Wildtype (WT) Arabidopsis and its mutants ixr1-1, ixr1-2, and ixr2-1 are grown on media supplemented with DMSO (FIGS. 1A-1B), isoxaben (FIGS. 1C-1D) or Cellulosin (FIGS. 1E-1F) and their quantifications on their root length. Arabidopsis mutants ixr1-1, ixr1-2 and ixr2-1 have longer roots in compare with wildtype (Col) on media supplemented with isoxaben. […] Bars: 1 cm

Which results are given for `Cc1ccc2c(c1)[C@H](Nc1nc(N)nc(C(C)F)n1)[C@@H](C)C2` (stereo partly drawn) [indaziflam]?
plant growth inhibition ([1]; 0.06 nM indaziflam alone in growth media): did not inhibit plant growth; also recorded: does not significantly inhibit plant growth; plant growth inhibition ([1]; 0.25 nM indaziflam alone in growth media): not inhibited; sensitivity of Cellulosin resistant mutants in growth (root length) [2]: Most of our mutants that are resistant to Cellulosin are sensitive; also recorded: only a few of our mutants show reduced sensitivity; resistance / sensitivity in growth of plants expressing mutated CesA6 [3]: do not show resistance; also recorded: they have the same sensitivity

With `CCC(C)(CC)c1cc(NC(=O)c2c(OC)cccc2OC)on1` [isoxaben, N-3[1-ethyl-1-methylpropyl]-5-isoxazolyl-2,6, or dimethoxybenzamide] as the compound, how does the plant growth inhibition ([1]; 3.5 nM isoxaben alone, nine days old plants) read?
The plant growth inhibition was “Neither 300 nM Cellulosin nor 3.5 nM isoxaben significantly inhibits plant growth; also recorded: does not significantly inhibit plant growth”.

And the plant growth inhibition ([1]; 4 nM isoxaben alone in growth media)?
The plant growth inhibition was “not inhibited; also recorded: did not inhibit plant growth; also recorded: does not significantly inhibit plant growth”.

What about the “growth / root length of isoxaben resistant mutants compared with wildtype (Col)” value [4] of the same compound?
Its value is “longer roots”.

What about the “sensitivity of Cellulosin resistant mutants in growth (root length)” value [2] of the same compound?
The value was “Most of our mutants that are resistant to Cellulosin are sensitive; also recorded: only a few of our mutants show reduced sensitivity”.

What about the “resistance / sensitivity in growth of plants expressing mutated CesA6” value [3] of the same compound?
Its value is “do not show resistance; also recorded: they have the same sensitivity”.
